# Measured values published in ChEMBL document CHEMBL1201862, “PubChem BioAssay data set” (2004).
#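 These data come from cells grown in 96-well plates and exposed to compound for 48 hours at five concentrations. The concentration for 50% growth inhibition is given as GI50.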 Activity calls are given as the source filed them. No stated cut-off is given here; in the data, active = GI50 up to about 1.1 µM and inactive = higher.
# Experiments:
# Assay in all cases: NCI anticancer screen, dose series, 48 h
# RPMI-8226 = test system: RPMI-8226
# SF-295 = test system: SF-295
# NCI/ADR-RES = test system: NCI/ADR-RES
# HOP-62 = test system: HOP-62
# MOLT-4 = test system: MOLT-4
# MDA-N = test system: MDA-N
# SF-268 = test system: SF-268
# U-251 = test system: U-251
# 786-0 = test system: 786-0
# CCRF-CEM = test system: CCRF-CEM
# MDA-MB-231 = test system: MDA-MB-231
# HT-29 = test system: HT-29
# A549 = test system: A549
# SNB-19 = test system: SNB-19
# UACC-257 = test system: UACC-257
# LOX IMVI = test system: LOX IMVI
# SK-OV-3 = test system: SK-OV-3
# T47D = test system: T47D
# TK-10 = test system: TK-10
# PC-3 = test system: PC-3
# SN12C = test system: SN12C
# OVCAR-4 = test system: OVCAR-4
# K562 = test system: K562
# HL-60 = test system: HL-60
# NCI-H522 = test system: NCI-H522
# SR = test system: SR
# BT-549 = test system: BT-549
# EKVX = test system: EKVX
# IGROV-1 = test system: IGROV-1
# MDA-MB-435 = test system: MDA-MB-435
# HCT-15 = test system: HCT-15
# OVCAR-8 = test system: OVCAR-8
# SK-MEL-5 = test system: SK-MEL-5
# Hs-578T = test system: Hs-578T
# Malme-3M = test system: Malme-3M
# SF-539 = test system: SF-539
# CAKI-1 = test system: CAKI-1
# DU-145 = test system: DU-145
# M14 = test system: M14
# COLO 205 = test system: COLO 205
# OVCAR-3 = test system: OVCAR-3
# A498 = test system: A498
# ACHN = test system: ACHN
# NCI-H226 = test system: NCI-H226
# MCF7 = test system: MCF7
# UO-31 = test system: UO-31
# NCI-H460 = test system: NCI-H460
# HCT-116 = test system: HCT-116
# RXF 393 = test system: RXF 393
# SK-MEL-28 = test system: SK-MEL-28
# NCI-H23 = test system: NCI-H23
# SK-MEL-2 = test system: SK-MEL-2
# HOP-92 = test system: HOP-92
# SW-620 = test system: SW-620
# SNB-75 = test system: SNB-75
# KM12 = test system: KM12
# OVCAR-5 = test system: OVCAR-5
structure (smiles),measurement,setting,value
O=C1/C(=C\c2ccc([N+](=O)[O-])o2)SC2NC(COc3ccc(Cl)cc3)=NN12 (configuration not stated),GI50,RPMI-8226,3.21 µM (inactive)
same,GI50,SF-295,19.3 µM (inactive)
same,GI50,NCI/ADR-RES,6.4 µM (inactive)
same,GI50,HOP-62,22.5 µM (inactive)
same,GI50,MOLT-4,3.02 µM (inactive)
same,GI50,MDA-N,3.48 µM (inactive)
same,GI50,SF-268,3.48 µM (inactive)
same,GI50,U-251,19.3 µM (inactive)
same,GI50,786-0,3.4 µM (inactive)
same,GI50,CCRF-CEM,1.99 µM (inactive)
same,GI50,MDA-MB-231,3.31 µM (inactive)
same,GI50,HT-29,6.05 µM (inactive)
same,GI50,A549,18.3 µM (inactive)
same,GI50,SNB-19,16.7 µM (inactive)
same,GI50,UACC-257,5.09 µM (inactive)
same,GI50,LOX IMVI,2.93 µM (inactive)
same,GI50,SK-OV-3,24 µM (inactive)
same,GI50,T47D,1.79 µM (inactive)
same,GI50,TK-10,17.6 µM (inactive)
same,GI50,PC-3,9.73 µM (inactive)
same,GI50,SN12C,14 µM (inactive)
same,GI50,OVCAR-4,1.87 µM (inactive)
same,GI50,K562,2.99 µM (inactive)
same,GI50,HL-60,2.16 µM (inactive)
same,GI50,NCI-H522,2.22 µM (inactive)
same,GI50,SR,3.47 µM (inactive)
same,GI50,BT-549,9.84 µM (inactive)
same,GI50,EKVX,5.83 µM (inactive)
same,GI50,IGROV-1,3.15 µM (inactive)
same,GI50,MDA-MB-435,4.2 µM (inactive)
same,GI50,HCT-15,2.07 µM
same,GI50,OVCAR-8,3.18 µM (inactive)
same,GI50,SK-MEL-5,12.8 µM (inactive)
same,GI50,Hs-578T,24.4 µM (inactive)
same,GI50,Malme-3M,2.4 µM (inactive)
same,GI50,SF-539,4.1 µM (inactive)
same,GI50,CAKI-1,13.1 µM (inactive)
same,GI50,DU-145,12.9 µM (inactive)
same,GI50,M14,2.31 µM (inactive)
same,GI50,COLO 205,3.37 µM (inactive)
same,GI50,OVCAR-3,6.27 µM (inactive)
same,GI50,A498,23.7 µM (inactive)
same,GI50,ACHN,1.96 µM (inactive)
same,GI50,NCI-H226,18.6 µM (inactive)
same,GI50,MCF7,2.12 µM (inactive)
same,GI50,UO-31,4.62 µM (inactive)
same,GI50,NCI-H460,19.2 µM (inactive)
same,GI50,HCT-116,3.4 µM (inactive)
same,GI50,RXF 393,17.6 µM (inactive)
same,GI50,SK-MEL-28,4.17 µM (inactive)
same,GI50,NCI-H23,10 µM (inactive)
same,GI50,SK-MEL-2,18.9 µM (inactive)
same,GI50,HOP-92,2.09 µM (inactive)
same,GI50,SW-620,2.43 µM (inactive)
same,GI50,SNB-75,15.5 µM (inactive)
same,GI50,KM12,13.7 µM (inactive)
same,GI50,OVCAR-5,21.2 µM (inactive)
